Source: patent US10383819B1, “Method to effect biphasic bioavailability of oral euphoric psychogenic cannabinoids” (Callitas Therapeutics, Inc., priority 2018, dated 2019)

What was measured:
Respiratory depression = conditions: in vivo
Method: The biphasic THC bioavailability, rapid oral absorption of THC, and the delayed, subsequent conversion of THC into 11-OH THC, provide both an immediate euphoric state and an extended euphoric state, 12-18 hours, that could provide a safe drug alternative to opioids. Opioids cause respiratory depression and overdose deaths from respiratory depression relative to opioid dose. This is the rationale of the second reference, and the reason that Massachusetts prioritized recreational cannabis dispensary licenses to areas of high opioid overdose deaths.

[1] = cited from earlier work
[2] = Menthol/1-arginine enhanced oral mucous membrane absorption of THC and euphoric effect
Method: FIG. 1 of Human Cannabinoid Pharmacokinetics, by Marilyn A. Huestis, (www.pubmed.gov/17712819) published as Chem Biodivers. 2007 August: 4(8): 1770-1804. […] This is with 8 inhalations over 10 minutes, in 6 patients. […] The method entails maintaining the menthol/1-arginine/THC coated edible THC in the oral cavity for about 10 minutes before chewing the edible.

[3] = cited from earlier work; remark: listed apart in the source
[4] = menthol/1-arginine enhanced, oral cavity

Compound	respiratory depression (Respiratory depression)	maximum effect (plasma concentration) ([1]; 6 hours after ingestion) [micrograms/ml]	area under the curve (AUC) of plasma concentration relative to THC ([1]; after ingestion of THC)	duration of plasma concentration ([1]; after ingestion of THC)	plasma concentration at peak effect relative to the peak THC plasma concentration ([1]; after ingestion of THC)	time after ingestion up to which an effect is produced ([1]; after ingestion of THC)	time of maximum effect after ingestion ([1]; after ingestion of THC) [h]	oral mucous membrane absorption of THC relative to the efficacy of smoked/inhaled THC [2, 4]	window in which oral mucous membrane absorption occurs [2, 4] [min]	duration of euphoric effect ([2]; orally absorbed THC, depending upon THC dosage) [h]	metabolism of inhaled or smoked THC into 11-OH THC ([3]; inhaled or smoked)	rise of plasma THC ([3]; smoking 3.55% THC cannabis, 8 inhalations over 10 minutes, 6 patients, from 0 in 10 minutes) [micrograms/ml]
CCCCCc1cc(O)c2c(c1)OC(C)(C)[C@@H]1CCC(CO)=C[C@@H]21 [11-OH THC, 11-hydroxy tetrahydrocannabinol]	do not cause respiratory depression	110	triple	over 24 hours	double	up to 15 hours	6	–	–	–	–	–
CCCCCc1cc(O)c2c(c1)OC(C)(C)[C@@H]1CCC(C)=C[C@@H]21 [THC, delta-9 tetrahydrocannabinol]	do not cause respiratory depression	–	–	12 h	–	–	–	about 70%	10 to 15	4 to 8	not metabolized into 11-OH THC	150
Cannabis	do not cause respiratory depression	–	–	–	–	–	–	–	–	–	–	–
